Some test systems named below: HOP-92 NSCLC; CCRF-CEM leukemia; OVCAR-5 ovarian; DLD-1 colon; UO-31 renal; SF-268 CNS; SK-MEL-28 melanoma; HCT-116 colon; IGROV1 ovarian; HT29 colon; HCC-2998 colon; EKVX NSCLC; U251 CNS; SN12C renal; SF-539 CNS; ACHN renal; COLO 205 colon; HOP-62 NSCLC.
Holding throughout (assay): growth of human tumour cells (NCI), 48 h

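A five-concentration, 48-hour dose response in 96-well plates underlies each endpoint, interpolated linearly between surrounding concentrations. TGI: total growth inhibition.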

Take `CCC1(N=[N+]=[N-])C(=O)c2ccccc2N(c2ccccc2)C1=O` (stereo unspecified): the TGI with HOP-92 NSCLC, with CCRF-CEM leukemia, in the experiment with OVCAR-5 ovarian, with DLD-1 colon, with UO-31 renal and in the experiment on SF-268 CNS was above 100 µM in each case. In addition, the TGI in the experiment on SK-MEL-28 melanoma, in the experiment with HCT-116 colon, with IGROV1 ovarian, in the experiment on HT29 colon, in the experiment with HCC-2998 colon and with EKVX NSCLC was above 100 µM throughout. Further, the TGI in the experiment on U251 CNS, with SN12C renal, with SF-539 CNS, in the experiment with ACHN renal, with COLO 205 colon and in the experiment with HOP-62 NSCLC was above 100 µM in each case.

As for `Brc1ccc2c(c1)C1C(CO2)C(c2ccccc2)=NN1c1ccccc1` (stereo unspecified), the TGI in the experiment with HOP-92 NSCLC, in the experiment with CCRF-CEM leukemia, in the experiment on OVCAR-5 ovarian, in the experiment on DLD-1 colon, with UO-31 renal and in the experiment with SF-268 CNS was above 100 µM in each case. Moreover, the TGI with SK-MEL-28 melanoma, in the experiment on HCT-116 colon, in the experiment with IGROV1 ovarian, in the experiment with HT29 colon, in the experiment with HCC-2998 colon and in the experiment with EKVX NSCLC was above 100 µM each time. In addition, the TGI in the experiment with U251 CNS, in the experiment with ACHN renal, in the experiment on COLO 205 colon and in the experiment with HOP-62 NSCLC was above 100 µM in each case.

With `Cn1nc2ccc3nccc(N(CCO)CCO)c3c2n1`, the TGI in the experiment with HOP-92 NSCLC, in the experiment with CCRF-CEM leukemia, in the experiment on OVCAR-5 ovarian, with DLD-1 colon, in the experiment on UO-31 renal and in the experiment with SF-268 CNS was above 100 µM throughout. Besides, the TGI with SK-MEL-28 melanoma, in the experiment with HCT-116 colon, in the experiment with IGROV1 ovarian, in the experiment with HT29 colon, in the experiment on HCC-2998 colon and in the experiment on EKVX NSCLC was above 100 µM in each case. Also, the TGI with U251 CNS, in the experiment on SN12C renal, in the experiment on SF-539 CNS, in the experiment with ACHN renal, in the experiment with COLO 205 colon and in the experiment on HOP-62 NSCLC was above 100 µM in each case.

As for `CCCCCCCCCCCCn1[nH]c(C)c(C(=S)SCCCCCCCC)c1=O`, the TGI in the experiment with HOP-92 NSCLC is above 100 µM; in the experiment with CCRF-CEM leukemia, above 78.3 µM; with OVCAR-5 ovarian, above 100 µM; with DLD-1 colon, above 94.6 µM; with UO-31 renal, above 100 µM; with SF-268 CNS, above 100 µM. Moreover, the TGI in the experiment on SK-MEL-28 melanoma, with HCT-116 colon, with IGROV1 ovarian, in the experiment on HT29 colon, in the experiment with HCC-2998 colon and with EKVX NSCLC was above 100 µM each time. In addition, the TGI in the experiment with U251 CNS, in the experiment on SN12C renal, in the experiment with SF-539 CNS, in the experiment on ACHN renal, in the experiment with COLO 205 colon and in the experiment with HOP-62 NSCLC was above 100 µM in each case.

Turning to `COC(=O)NC(=O)c1cn(CCCOC(=O)CCCCCCCCC(=O)OCCCn2cc(C(=O)NC(=O)OC)c(=O)[nH]c2=O)c(=O)[nH]c1=O`, the TGI is 95.2 µM in the experiment on HOP-92 NSCLC; above 100 µM in the experiment on CCRF-CEM leukemia; above 100 µM in the experiment with OVCAR-5 ovarian; above 100 µM with DLD-1 colon; above 100 µM in the experiment with UO-31 renal; above 100 µM with SF-268 CNS. Further, the TGI with SK-MEL-28 melanoma, in the experiment with HCT-116 colon, in the experiment with IGROV1 ovarian, in the experiment on HT29 colon, with HCC-2998 colon and in the experiment with EKVX NSCLC was above 100 µM throughout. For the same molecule, the TGI in the experiment on SN12C renal was above 100 µM; with SF-539 CNS, above 100 µM; in the experiment on ACHN renal, above 100 µM; in the experiment on HOP-62 NSCLC, 78.5 µM.

Take `CC1C=C[C@H](Sc2ccccc2)CC[C@@]1(C)O` (stereo partly specified): the TGI with HOP-92 NSCLC, in the experiment on CCRF-CEM leukemia, in the experiment with OVCAR-5 ovarian, in the experiment with DLD-1 colon, in the experiment on UO-31 renal and in the experiment with SK-MEL-28 melanoma was above 100 µM throughout. Also, the TGI in the experiment on HCT-116 colon, in the experiment on IGROV1 ovarian, in the experiment on HT29 colon, in the experiment on HCC-2998 colon, in the experiment with EKVX NSCLC and in the experiment on U251 CNS was above 100 µM in each case. In addition, the TGI with SN12C renal, in the experiment with SF-539 CNS, with ACHN renal, in the experiment with COLO 205 colon and with HOP-62 NSCLC was above 100 µM in each case.

Consider `COC(=O)C1N=CSCC1(C)O` (stereo unspecified), for which the TGI in the experiment on HOP-92 NSCLC, in the experiment on CCRF-CEM leukemia, in the experiment with OVCAR-5 ovarian, in the experiment with DLD-1 colon, in the experiment with UO-31 renal and with SF-268 CNS was above 100 µM in each case. In addition, the TGI in the experiment with SK-MEL-28 melanoma, in the experiment with HCT-116 colon, in the experiment on IGROV1 ovarian, in the experiment with HT29 colon, in the experiment with HCC-2998 colon and in the experiment with EKVX NSCLC was above 100 µM each time. Moreover, the TGI in the experiment on SN12C renal, with SF-539 CNS, in the experiment on ACHN renal, in the experiment with COLO 205 colon and in the experiment on HOP-62 NSCLC was above 100 µM each time.

Turning to `COc1ccc(N2C(=O)[C@@H]3[C@H](C2=O)c2[nH]c4ccccc4c2C2CCC(C(C)(C)C)C[C@@H]23)cc1` (stereo partly specified), the TGI was 43.7 µM with CCRF-CEM leukemia; above 100 µM in the experiment with OVCAR-5 ovarian; above 100 µM with DLD-1 colon; above 78.4 µM in the experiment with UO-31 renal; above 100 µM with SF-268 CNS; above 100 µM with SK-MEL-28 melanoma. Besides, the TGI in the experiment on HCT-116 colon was above 100 µM; with IGROV1 ovarian, above 100 µM; in the experiment with HT29 colon, above 100 µM; in the experiment on HCC-2998 colon, above 100 µM; in the experiment on EKVX NSCLC it was 81.4 µM; in the experiment on U251 CNS, 49.1 µM. Also, the TGI with SN12C renal was 37.5 µM; in the experiment with SF-539 CNS, 62.6 µM; in the experiment with ACHN renal, 87.6 µM; in the experiment on COLO 205 colon, above 84.2 µM; in the experiment with HOP-62 NSCLC, 32.9 µM.

With `CCCCNC(=O)CCN(C(=O)O)S(=O)(=O)c1ccc(NC(=O)c2ccccc2)cc1`, the TGI with HOP-92 NSCLC, with CCRF-CEM leukemia, in the experiment on OVCAR-5 ovarian, in the experiment on DLD-1 colon, with UO-31 renal and in the experiment on SF-268 CNS was above 100 µM in each case. Also, the TGI in the experiment on SK-MEL-28 melanoma is above 100 µM; in the experiment on HCT-116 colon, above 100 µM; with IGROV1 ovarian it was above 100 µM; in the experiment on HT29 colon, 49.8 µM; in the experiment on HCC-2998 colon, above 100 µM; with EKVX NSCLC, above 100 µM. The TGI in the experiment on U251 CNS, in the experiment on SN12C renal, with SF-539 CNS, with ACHN renal, in the experiment on COLO 205 colon and in the experiment with HOP-62 NSCLC was above 100 µM throughout.

With `C/C(CC(=O)NC1=CC=C(NC(=O)C/C(C)=N\Nc2ccccc2)CC1)=N/Nc1ccccc1`, the TGI in the experiment with HOP-92 NSCLC, in the experiment with CCRF-CEM leukemia, in the experiment on OVCAR-5 ovarian, with DLD-1 colon, in the experiment with UO-31 renal and in the experiment with SF-268 CNS was above 100 µM each time. Also, the TGI in the experiment on SK-MEL-28 melanoma, in the experiment on HCT-116 colon, in the experiment on IGROV1 ovarian, with HT29 colon, in the experiment with HCC-2998 colon and in the experiment with EKVX NSCLC was above 100 µM in each case. Further, the TGI with U251 CNS, in the experiment on SN12C renal, in the experiment with SF-539 CNS, in the experiment with ACHN renal, in the experiment on COLO 205 colon and in the experiment with HOP-62 NSCLC was above 100 µM each time.

Turning to `COc1ccc(NC(=O)CC(=O)N/N=C/c2ccc(N(CCC#N)S(=O)(=O)c3ccccc3)cc2)cc1`, the TGI in the experiment with HOP-92 NSCLC, in the experiment on CCRF-CEM leukemia, in the experiment with OVCAR-5 ovarian, in the experiment on DLD-1 colon, in the experiment with UO-31 renal and with SF-268 CNS was above 100 µM each time. In addition, the TGI with SK-MEL-28 melanoma, in the experiment with HCT-116 colon, in the experiment with IGROV1 ovarian, in the experiment on HT29 colon, in the experiment on HCC-2998 colon and in the experiment with EKVX NSCLC was above 100 µM throughout. The TGI with U251 CNS, in the experiment with ACHN renal, with COLO 205 colon and with HOP-62 NSCLC was above 100 µM each time.

Take `O=C(O)Cn1c(=O)[nH]c(=O)c2[nH]cnc21`: the TGI in the experiment with CCRF-CEM leukemia, with OVCAR-5 ovarian, in the experiment on DLD-1 colon, with UO-31 renal, with SF-268 CNS and with SK-MEL-28 melanoma was above 100 µM in each case. The TGI in the experiment with HCT-116 colon, with IGROV1 ovarian, with HT29 colon, in the experiment with HCC-2998 colon, in the experiment on EKVX NSCLC and in the experiment on U251 CNS was above 100 µM each time. Also, the TGI in the experiment on SN12C renal, in the experiment with SF-539 CNS, with ACHN renal, with COLO 205 colon and with HOP-62 NSCLC was above 100 µM throughout.

Values taken from PubChem BioAssay (NCI).
